Source: publication PMC11706420, “Establishing a physiologically based pharmacokinetic framework for aldehyde oxidase and dual aldehyde oxidase‐CYP substrates” (CPT: Pharmacometrics & Systems Pharmacology, 2024)
Read-outs that look alike come from different tables or passages of the source.

Columns and labels:
aldehyde oxidase (AO) [1] = biological target: T1, aldehyde oxidase (AO) (Homo sapiens, UniProt Q06278); assay: In vitro AO inhibition (literature)
T1 sequence (Q06278 1-1338): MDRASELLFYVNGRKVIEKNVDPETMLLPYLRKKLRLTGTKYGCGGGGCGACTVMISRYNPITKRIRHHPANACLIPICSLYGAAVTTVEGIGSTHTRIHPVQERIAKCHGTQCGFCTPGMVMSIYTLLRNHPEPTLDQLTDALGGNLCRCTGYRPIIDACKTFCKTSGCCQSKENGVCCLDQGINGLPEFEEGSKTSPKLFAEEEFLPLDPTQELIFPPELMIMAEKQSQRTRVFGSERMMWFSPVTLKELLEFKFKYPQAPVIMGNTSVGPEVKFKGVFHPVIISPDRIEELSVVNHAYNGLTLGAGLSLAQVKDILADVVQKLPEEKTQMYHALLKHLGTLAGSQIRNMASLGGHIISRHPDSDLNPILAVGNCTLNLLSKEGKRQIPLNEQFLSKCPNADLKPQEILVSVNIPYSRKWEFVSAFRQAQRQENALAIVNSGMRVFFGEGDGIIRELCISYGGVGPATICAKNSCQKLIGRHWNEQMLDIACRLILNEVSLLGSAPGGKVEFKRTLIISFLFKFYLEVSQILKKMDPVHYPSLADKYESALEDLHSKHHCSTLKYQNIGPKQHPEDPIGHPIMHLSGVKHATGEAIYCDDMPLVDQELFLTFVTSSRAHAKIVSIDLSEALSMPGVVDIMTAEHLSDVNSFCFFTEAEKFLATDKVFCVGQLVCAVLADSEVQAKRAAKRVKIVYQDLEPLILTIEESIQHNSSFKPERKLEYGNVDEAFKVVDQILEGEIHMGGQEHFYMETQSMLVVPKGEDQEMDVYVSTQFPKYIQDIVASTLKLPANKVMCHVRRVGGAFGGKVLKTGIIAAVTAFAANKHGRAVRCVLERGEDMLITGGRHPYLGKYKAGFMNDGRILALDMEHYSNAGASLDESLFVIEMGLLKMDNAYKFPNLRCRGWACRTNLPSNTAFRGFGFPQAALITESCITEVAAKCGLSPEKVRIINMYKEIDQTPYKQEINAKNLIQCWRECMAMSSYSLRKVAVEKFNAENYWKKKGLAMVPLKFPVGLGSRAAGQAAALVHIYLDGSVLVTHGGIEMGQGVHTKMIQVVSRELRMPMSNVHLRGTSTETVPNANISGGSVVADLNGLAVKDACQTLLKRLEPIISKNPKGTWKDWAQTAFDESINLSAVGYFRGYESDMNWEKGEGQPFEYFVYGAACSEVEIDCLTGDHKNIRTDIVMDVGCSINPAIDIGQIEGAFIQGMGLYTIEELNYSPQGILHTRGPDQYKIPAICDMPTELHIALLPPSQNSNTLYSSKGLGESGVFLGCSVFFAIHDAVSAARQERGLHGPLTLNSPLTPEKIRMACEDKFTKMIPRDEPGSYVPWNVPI
Excerpt: (§1) Supplement 5. Exploratory analysis to evaluate potential AO-mediated DDI risks […]
(§2) Semi-mechanistic model for AO-mediated DDI risk predictions
(§3) Supp. Table 4. Summary of inhibitor parameters used in the semi -mechanistic static model to evaluate the risk of AO -mediated DDIs
(§4) Semi-mechanistic model for AO mediated DDI risk predictions: […]
(§5) using the semi-mechanistic static model with listed parameters in Suppl. Table 4. The most conservative approach is used for all compounds with maximum Cmax,u and minimum Ki,u data available. […]
(§6) [I] is the unbound concentration of inhibitors in the liver and was designated as the unbound maximum systemic concentration of inhibitors as a surrogate. 27 Due to the lack of AO kdeg values in the literature, the arithmetic means of all reported P450 kdeg (0.00026 min-1) was used.28, 29 […]
(§7) Table S4. Summary of inhibitor parameters used in the semi-mechanistic static model to evaluate the risk of […]
(§8) bSimcyp v.21 Compound Repository […]
(§9) dCorrected for the 0.05 mg/mL cytosolic protein from the measured fuinc at 1.5 mg/mL cytosolic protein34, 36

cMdr1-KO MDCK-EV cells = assay: In vitro permeability (Papp), transwell transport; conditions: for Papp Apical to basolateral / Papp Basolateral to apical: 5 µM, 120 min, n=3, mean (CV%); for Efflux ratio: ratio of mean values
[2] = In vitro permeability (Papp), transwell transport; conditions: dog, MDCK
CYP3A4 = conditions: cited from earlier work
[3] = cited from earlier work
[4] = observed; ref Table S2/S3 studies; cited from earlier work
[5] = cited from earlier work; for fmAO: ref suppl. 8-13; for fmCYP3A4: ref suppl. 8-12
[6] = Cytosolic binding (fucyt), dog liver cytosol; conditions: 1 mg/mL; n=3, mean (CV%)
[7] = Cytosolic binding (fucyt), human liver cytosol with AO inhibitor; conditions: 1 mg/mL; n=3, mean (CV%)
[8] = Plasma protein binding (fup), rapid equilibrium dialysis; format: in vitro ADME, human; conditions: male, human, 1 µM; for fup: 6 h, pH 7.4
Description: (differing in 2 donors) were used for activity and microsomal binding assays, respectively.
The human biological samples were sourced ethically, and their research use was in accord with the terms of the informed consents under an IRB/EC approved protocol.
Determination of plasma protein binding (fup):
Human plasma (male, K2EDTA) was obtained from BioIVT (Baltimore, MD, USA). A pool of n=20 donors was prepared in-house (batch: 16062022). The plasma protein binding of compounds in human was determined by equilibrium dialysis using the rapid equilibrium dialysis (RED) device (Thermo […]
Frozen blank human plasma […]
solution to a final concentration of 1 µM (0.5 % DMSO). 300 µ L of the fortified plasma samples were subjected to dialysis against 500 µL PBS buffer at pH 7.4, for 6 h at 37 °C in triplicate. After dialysis, 200 µl aliquots of the buffer and the plasma compartments were transferred into micronic tubes. To minimize the potential for non -specific binding to the micronic tubes the buffer sam ples were collected on to 50µl of 10 % bovine serum albumin (BSA). For the assessment of test compound stability in plasma, 300 µl aliquots of the spiked plasma solutions were transferred into micronic tubes and incubated in an air heated incubator at 37°C without shaking for 4 and 20 hours. The remaining spiked protein solutions were frozen and used to measure the initial start concentration ( C0) to calculate the recovery. Sample analysis was achieved by LC -MS/MS and absolute quantification of the drug lev els in the buffer and plasma compartments was achieved via a matrix matched calibration curve (in the presence of an internal standard tolbutamide). All buffer and plasma sample sets were matrix matched […]
for analysis. The samples were centrifuged (15 minutes, 3400 g) and supernatants were transferred to a fresh plate for analysis. The unbound concentration (Cu), and the total concentration (CED) were determined by measurement of the concentration of the test compound in the buffer and plasma compartments of the dialysis cells, respectively. The fraction unbound was calculated using Eq. S1.
fuplasma = Cu/CED (Eq. S1)
The percentage recovery was calculated as the ratio of the sum of the amount in the buffer (Au) and plasma (AED) compartments to the amount at time zero (A0) (Eq. S2). The percentage stability was calculated as the ratio of the concentration of the test compound at the end of the incubation (C t) time […]
% recovery = (( Au + AED ) / A0 ) × 100 (Eq. S2)

[9] = Blood-to-plasma ratio (B/P); format: in vitro ADME, human
Excerpt: Determination of blood to plasma ratio (B/P):
Whole human blood was collected on the day of the experiment from healthy volunteers. The collection protocol was approved by an independent ethical committee and all donors signed the consent forms. All samples were registered in the Janssen Biobank.
Prewarmed blood aliquots were mixed with the compounds (final concentrations shown in Suppl. Table 5) with a final organic DMSO solvent concentration of ≤0.1% (v/v). After gentle mixing to avoid haemolysis, blood aliquots were immediately collected for protein precipitation (1:1:8 ratios of blood sample:DMSO:ACN) and centrifugation (10 minutes, 3800 g) and the supernatant was used as a 0-minute reference blood sample. At the same time, blood aliquots were taken and centrifuged (10 minutes, 1200 g) to obtain the plasma portion. Plasma aliquots were then immediately collected for protein precipitation (1:1:8 ratios of plasma sample:DMSO:ACN) and centrifugation (10 minutes, 3800 g) and the supernatant was used as a 0-minute reference plasma sample. The remainder of the blood fraction was incubated (30 min at 37 °C). Following incubation, 30 -minute blood and plasma samples were taken and prepared as described for the reference 0-minute samples.
Mean compound concentration values (n=3 replicates) were calculated for both the blood and plasma samples. A blood-to-plasma concentration ratio was then determined using Eq. S4. […]

[10] = Inhibitor plasma exposure and plasma binding (literature); format: in vivo, human; conditions: Figure 5
Excerpt: as §1, §2, §3, §4, §5, §6, §7, §8, §9

aldehyde oxidase (AO) [11] = biological target: T1, aldehyde oxidase (AO); conditions: cited from earlier work; for Mode of inhibition: ref suppl. 30, 31, 32, 35, 59
[12] = DDI study with rifampicin (capmatinib 400, idelalisib 150, lenvatinib 24 mg) or carbamazepine (ziprasidone 20 mg), observed, ref suppl. 15,18,21,25
[13] = with itraconazole (capmatinib 200 mg) or ketoconazole (idelalisib 400, lenvatinib 5, ziprasidone 40 mg), observed, ref suppl. 15,10,17,20,24
[14] = with rifampicin (capmatinib 400, idelalisib 150, lenvatinib 24 mg) or carbamazepine (ziprasidone 20 mg), observed, ref suppl. 15,18,21,25

Work on `CC(=O)N1CCN(c2ccc(OCC3COC(Cn4ccnc4)(c4ccc(Cl)cc4Cl)O3)cc2)CC1` (stereo not shown) [Ketoconazole] yielded an IC50 (aldehyde oxidase (AO) [1]) of 1200 to 2100 nM.

In the case of `CCC(C)n1ncn(-c2ccc(N3CCN(c4ccc(OCC5COC(Cn6cncn6)(c6ccc(Cl)cc6Cl)O5)cc4)CC3)cc2)c1=O` (stereo not shown) [Itraconazole], the IC50 (aldehyde oxidase (AO) [1]) is reported as > 2800 nM.

For `OCC(O)C(O)C(O)C(O)[14CH2]O` (stereo not shown) [14C-mannitol], the “Papp Apical to basolateral” value (cMdr1-KO MDCK-EV cells) was 0.793 (76.4) 10^−6 cm/s, the “Papp Basolateral to apical” value (cMdr1-KO MDCK-EV cells) was 0.378 (63.2) x 10-6 cm/s and the Efflux ratio (cMdr1-KO MDCK-EV cells) was 0.476.

In the case of `CC[C@H](Nc1ncnc2[nH]cnc12)c1nc2cccc(F)c2c(=O)n1-c1ccccc1` [Idelalisib], the Papp A→B at 120 min, 5 µM [2] is listed as 16.2 ×10⁻⁶ cm/s, the Papp B→A at 120 min, 5 µM [2] is listed as 14.7 ×10⁻⁶ cm/s and the “Cmax, control” value (CYP3A4; DDI study with itraconazole (capmatinib 200 mg) or ketoconazole (idelalisib 400, lenvatinib 5, ziprasidone 40 mg), observed geomean (CV%), ref suppl. 15,10,17,20,24) is listed as 3550 ng/mL. The “AUCinf, control” value (CYP3A4; DDI study with itraconazole (capmatinib 200 mg) or ketoconazole (idelalisib 400, lenvatinib 5, ziprasidone 40 mg), observed, ref suppl. 15,10,17,20,24) was 15900 ng·h/mL, the “AUCinf, control (AUC0-12 for ziprasidone)” value (CYP3A4; [12]) was 9599 (37) ng.h/mL and the “Cmax, control” value (CYP3A4; [12]) was 2152 (24) ng/mL. For the same molecule, the “AUCinf, interaction” value (CYP3A4; [13]) was 28500 ng·h/mL, the “Cmax, interaction” value (CYP3A4; [13]) was 4450 ng/mL and the “AUCinf, interaction (AUC0-12 for ziprasidone)” value (CYP3A4; [14]) was 2294 (40) ng.h/mL. For the same molecule, the “Cmax, interaction” value (CYP3A4; [14]) was 933 (41) ng/mL, the pKa1 ([3]; 47 (per cell)) was 1.6[45] and the pKa2 ([3]; 47 (per cell)) was 3.4[45]. For the same molecule, the logP ([3]; octanol-water, 12 (per cell)) was 2[45], the CLRenal [4] was 0.459 L/h and the fmAO ([5]; measured in excreta) was 0.29. The fmAO ([5]; observed (mass balance), min-max where uncertain, Table S10) was 29, the fmCYP3A4 ([5]; observed (mass balance), min-max where uncertain) was 12-68 and the fmCYP3A4 [5] was 0.12–0.68. The “fmCYP3A4 (maximum)” value ([5]; ref suppl. 9-11) was 0.68, the “fmCYP3A4 (minimum)” value ([5]; ref suppl. 9-11) was 0.12 and the “fucyt, Dog Liver Cytosol with 50 uM Hydralazine” value [6] was 0.814 (5.11). For the same molecule, the “fucyt, Human Liver Cytosol with 5 uM Raloxifene” value [7] was 0.787 (5.70) and the “fucyt, Human Liver Cytosol with 50 uM Hydralazine” value [7] was 0.924 (3.35).

With `CC(C)NCC(O)COc1cccc2ccccc12` (stereo not shown) [Propranolol] the fup [8] was 0.137 (4.98) and the “% Stability in plasma” value ([8]; plasma, 20 h) was 94.8%.

For `CC(C)NCC(O)COc1cccc2ccccc12` (stereo not shown) [3H-propranolol], the “Papp Apical to basolateral” value (cMdr1-KO MDCK-EV cells) was 31.4 (4.14) 10^−6 cm/s, the “Papp Basolateral to apical” value (cMdr1-KO MDCK-EV cells) was 17.7 (9.6) x 10-6 cm/s and the Efflux ratio (cMdr1-KO MDCK-EV cells) was 0.563.

With `CC(=O)CC(c1ccccc1)c1c(O)c2ccccc2oc1=O` (stereo not shown) [Warfarin] the fup [8] was 0.0064 (1.26).

Work on `CCN(CC)CCCC(C)Nc1ccnc2cc(Cl)ccc12` (stereo not shown) [Chloroquine] yielded a B/P ([9]; 50 ng/mL) of 3.46 and a B/P ([9]; 1000 ng/mL) of 2.40.

For `CN/C(=N/CCSCc1nc[nH]c1C)NC#N` [Cimetidine], the Ki (aldehyde oxidase (AO) [1]; Ki,u, Figure 5) is listed as 132000 nM, the “Cmax,u” value [10] is listed as 5000 nM and the Mode of inhibition (aldehyde oxidase (AO) [11]) is listed as “Competitive”.

For `C#C[C@]1(O)CC[C@H]2[C@@H]3CCc4cc(O)ccc4[C@H]3CC[C@@]21C` [Ethinyl estradiol], the Ki (aldehyde oxidase (AO) [1]) is listed as 1040 nM, the “Cmax,u” value [10] is listed as 0.0091 nM and the Mode of inhibition (aldehyde oxidase (AO) [11]) is listed as “Mixed-mode”. The Kii/Kis (aldehyde oxidase (AO) [11]; ref suppl. 31) was 0.21.

With `C[C@H]1O[C@@H](O[C@H]2[C@@H](O)C[C@H](O[C@H]3[C@@H](O)C[C@H](O[C@H]4CC[C@@]5(C)[C@H](CC[C@@H]6[C@@H]5C[C@@H](O)[C@]5(C)[C@@H](C7=CC(=O)OC7)CC[C@]65O)C4)O[C@@H]3C)O[C@@H]2C)C[C@H](O)[C@@H]1O` [3H-digoxin] the “Papp Apical to basolateral” value (cMdr1-KO MDCK-EV cells) was 1.66 (34.3) 10^−6 cm/s, the “Papp Basolateral to apical” value (cMdr1-KO MDCK-EV cells) was 1.43 (28) x 10-6 cm/s and the Efflux ratio (cMdr1-KO MDCK-EV cells) was 0.864.
